Experimental data from patent US20230293526A1, “METHOD FOR TREATING CANCER WITH A REVERSE TRANSCRIPTASE INHIBITOR” (PrimeFour Therapeutics, Inc., priority 2020, published 2023).

Experiments:
Experiment in all cases: Cell proliferation CellTiterGlo Ex.2
Assay type in all cases: cell-based
Caki-1 = conditions: Homo sapiens; Caki-1 (Kidney), 72 h
Description: (§1) A dose response relationship on cell proliferation was assessed for Compound 13 on 140 tumor cell lines. Briefly, compound treatment of cells started one day after seeding with a final DMSO concentration of 0.100, and was performed by nanodrop-dispensing using a Tecan Dispenser. 0.10% DMSO (solvent) and Staurosporine (10 μM) served as high control (10000 viability) and low control (000 viability), respectively. Compound 13 was tested at 10, 3, 1, 0.3, 0.1, 0.03, 0.01, and 0.003 μM.
(§2) Cells were cultured in the appropriate media. For the assays, cells were seeded in white cell culture-treated flat and clear bottom multiwell plates and incubated at 37° C. overnight before compound was added. After incubation for 72 h at 37° C. at 5% or 10% CO2 dependent on the medium, cell plates were equilibrated to room temperature for one hour, CellTiterGlo reagent (Promega) was added and luminescence was measured approximately an hour later using a luminometer.
(§3) Raw data were converted into percent cell viability relative to the high and low control, which were set to 10000 and 000, respectively.

BxPC-3 = conditions: Homo sapiens; BxPC-3 (Pancreas), 72 h
Description: as §1, §2, §3

LOVO = conditions: Homo sapiens; LOVO (Colon), 72 h
Description: as §1, §2, §3

A375 = conditions: Homo sapiens, A-375; A375 (Skin), 72 h
Description: as §1, §2, §3

U87MG = conditions: Homo sapiens, U-87 MG; U87MG (Brain), 72 h
Description: as §1, §2, §3

A2780 = conditions: Homo sapiens; A2780 (Ovary), 72 h
Description: as §1, §2, §3

MOLT-4 = conditions: Homo sapiens; MOLT-4 (Blood), 72 h
Description: as §1, §2, §3

LP-1 = conditions: Homo sapiens; LP-1 (Blood), 72 h
Description: as §1, §2, §3

H2228 = conditions: Homo sapiens, NCI-H2228; H2228 (Lung), 72 h
Description: as §1, §2, §3

H460 = conditions: Homo sapiens, NCI-H460; H460 (Lung), 72 h
Description: as §1, §2, §3

HCC38 = conditions: Homo sapiens; HCC38 (Breast), 72 h
Description: as §1, §2, §3

SiHa = conditions: Homo sapiens; SiHa (Cervix), 72 h
Description: as §1, §2, §3

NCI-H1048 = conditions: Homo sapiens; NCI-H1048 (Lung), 72 h
Description: as §1, §2, §3

EFO-27 = conditions: Homo sapiens; EFO-27 (Ovary), 72 h
Description: as §1, §2, §3

MDA MB 435 = conditions: Homo sapiens; MDA MB 435 (Skin), 72 h
Description: as §1, §2, §3

MCAS = MCAS (Ovary), 72 h
Description: as §1, §2, §3

HuH7 = conditions: Homo sapiens, Huh-7; HuH7 (Liver), 72 h
Description: as §1, §2, §3

HEC-1-A = conditions: Homo sapiens; HEC-1-A (Endometrium), 72 h
Description: as §1, §2, §3

NCI-H1581 = conditions: Homo sapiens; NCI-H1581 (Lung), 72 h
Description: as §1, §2, §3

H4 = H4 (Brain), 72 h
Description: as §1, §2, §3

A549 = conditions: Homo sapiens; A549 (Lung), 72 h
Description: as §1, §2, §3

SK-LU-1 = conditions: Homo sapiens; SK-LU-1 (Lung), 72 h
Description: as §1, §2, §3

ZR-75-1 = conditions: Homo sapiens; ZR-75-1 (Breast), 72 h
Description: as §1, §2, §3

A172 = conditions: Homo sapiens, A 172; A172 (Brain), 72 h
Description: as §1, §2, §3

Jurkat = conditions: Homo sapiens; Jurkat (Blood), 72 h
Description: as §1, §2, §3

U-937 = conditions: Homo sapiens; U-937 (Blood), 72 h
Description: as §1, §2, §3

SNU-1 = conditions: Homo sapiens, SNU1; SNU-1 (Stomach), 72 h
Description: as §1, §2, §3

OCI-LY19 = conditions: Homo sapiens; OCI-LY19 (Blood), 72 h
Description: as §1, §2, §3

Colo 205 = conditions: Homo sapiens; Colo 205 (Colon), 72 h
Description: as §1, §2, §3

786-O = conditions: Homo sapiens, 786-0; 786-O (Kidney), 72 h
Description: as §1, §2, §3

DU-145 = conditions: Homo sapiens; DU-145 (Prostate), 72 h
Description: as §1, §2, §3

NCI-H292 = conditions: Homo sapiens; NCI-H292 (Lung), 72 h
Description: as §1, §2, §3

LnCap = conditions: Homo sapiens; LnCap (Prostate), 72 h
Description: as §1, §2, §3

MKN-1 = conditions: Homo sapiens; MKN-1 (Stomach), 72 h
Description: as §1, §2, §3

Compound: C#C[C@]1(CO)O[C@@H](n2cnc3c(=O)[nH]c(N)nc32)C[C@@H]1O [compound 13]
- IC50 (Caki-1): 9.76 µM
- IC50 (BxPC-3): 5.43 µM
- IC50 (LOVO): 8.21 µM
- IC50 (A375): 2.37 µM
- IC50 (U87MG): 6.39 µM
- IC50 (A2780): 4.58 µM
- IC50 (MOLT-4): 0.51 µM
- IC50 (LP-1): 3.15 µM
- IC50 (H2228): > 10 µM
- IC50 (H460): 5.68 µM
- IC50 (HCC38): 6.37 µM
- IC50 (SiHa): 2.45 µM
- IC50 (NCI-H1048): 2.49 µM
- IC50 (EFO-27): 9.9 µM
- IC50 (MDA MB 435): > 10 µM
- IC50 (MCAS): > 10 µM
- IC50 (HuH7): 1.24 µM
- IC50 (HEC-1-A): > 10 µM
- IC50 (NCI-H1581): 2.97 µM
- IC50 (H4): > 10 µM
- IC50 (A549): > 10 µM
- IC50 (SK-LU-1): > 10 µM
- IC50 (ZR-75-1): > 10 µM
- IC50 (A172): > 10 µM
- IC50 (Jurkat): 1.17 µM
- IC50 (U-937): 1.12 µM
- IC50 (SNU-1): 2.89 µM
- IC50 (OCI-LY19): 0.56 µM
- IC50 (Colo 205): 1.5 µM
- IC50 (786-O): 5.81 µM
- IC50 (DU-145): 5.73 µM
- IC50 (NCI-H292): 8.56 µM
- IC50 (LnCap): > 10 µM
- IC50 (MKN-1): 8.76 µM
